In US20180305334A1, “COMPOUNDS, COMPOSITIONS AND METHODS OF USE AGAINST STRESS GRANULES” (Aquinnah Pharmaceuticals, Inc., priority 2015, published 2018):

Tested on: TDP-43 aggregation in PC12 cells stably expressing TDP-43^Q331K::eGFP
Test: In vitro efficacy assay, TDP-43 aggregation concentration-response
Type: cell-based
Conditions: PC12 TDP-43^Q331K::eGFP, 1 hour pre-treatment, 15 μM sodium arsenite for 23 hours, 10-point dose response
Procedure: Exemplary compounds of the invention were evaluated for efficacy in inhibiting TDP-43 inclusions using a concentration-response assay. Briefly, PC12 cells stably expressing a GFP-tagged mutant form of TDP-43 (TDP-43^Q331K::eGFP) were pre-treated for 1 hour with exemplary compounds and stressed with 15 μM sodium arsenite for 23 hours to induce TDP-43 aggregation. The inhibitory effect on TDP-43 aggregation was measured using fluorescence microscopy. The ratio of cells with TDP-43 aggregates was calculated based on the total number of cells with detectable GFP expression.

[1] = Rattus norvegicus, PC-12, inhibition of TDP-43 aggregation
[2] = inhibition of TDP-43 aggregation

Structure (SMILES) | IC50 [1] [µM] | IC50 [2] [µM]
CCN(CC1CCCN(Cc2ccc(OC)cc2)C1)C(=O)c1cc2cc(OCc3ccccc3)ccc2[nH]1 (stereo not shown) [Compound 174] | 1.5 to 4 | –
COc1ccc(CN2CCC(CN(C)C(=O)c3cc4ccccc4[nH]3)CC2)cc1 [compound 261] | 1.5 to 4 | –
CCN(CC1CCCN(Cc2ccc(OC)cc2)C1)C(=O)c1cc2ccc(OC)cc2[nH]1 (stereo not shown) [Compound 162] | 1.5 to 4 | –
CCN(CC1CCN(C2CCc3ccccc3C2)CC1)C(=O)c1cc2ccccc2[nH]1 (stereo not shown) [Compound 211] | 1.5 to 4 | –
CCN(CC1CCCN(C(C)(C)Cc2cccc(OC)c2)C1)C(=O)c1cc2ccccc2[nH]1 (stereo not shown) [compound 312] | 1.5 to 4 | –
CCN(CC1CCCN(C(C)(C)Cc2cccc(OC(F)(F)F)c2)C1)C(=O)c1cc2cc(OC(F)(F)F)ccc2[nH]1 (stereo not shown) [Compound 337] | – | < 1.5
CCN(CC1CCN(Cc2ccc(OC(F)(F)F)cc2)CC1)C(=O)c1cc2cc(OC(F)(F)F)ccc2[nH]1 [compound 309] | > 10 | –
CCN(CC1CCCN(CCc2cc3ccccc3o2)C1)C(=O)c1cc2ccccc2[nH]1 (stereo not shown) [Compound 181] | 7 to 9.9 | –
CCN(CC1CCCN(Cc2ccc(C(=O)O)cc2)C1)C(=O)c1cc2ccccc2[nH]1 (stereo not shown) [Compound 213] | > 10 | –
CCN(CC1CCCN(Cc2ccc(OC)cc2)C1)C(=O)c1cc2cccc(F)c2[nH]1 (stereo not shown) [Compound 158] | 4 to 7 | –
CN(CC1CCN(Cc2ccccc2)CC1)C(=O)c1cc2ccccc2[nH]1 [compound 263] | > 10 | –
CCN(CC1CCCN(CC(C)(C)c2cccc(OC(F)(F)F)c2)C1)C(=O)c1cc2cc(OC(F)(F)F)ccc2[nH]1 (stereo not shown) [Compound 407] | > 10 | –
O=C(NCC1CCNCC1)c1cc2ccccc2[nH]1 [Compound 264] | 1.5 to 4 | –
CCN(CC1CCN(Cc2ccccc2Cl)CC1)C(=O)c1cc2ccccc2[nH]1 [compound 286] | 1.5 to 4 | –
CCN(CC1CCCN(CCc2cccc(OC)c2)C1)C(=O)c1cc(C#N)c[nH]1 (stereo not shown) [Compound 242] | 1.5 to 4 | –
CN(CC1CCN(Cc2ccccc2Cl)CC1)C(=O)c1cc2ccccc2[nH]1 [compound 259] | > 10 | –
CCN(CC1CCN(Cc2cccc(OC(F)F)c2)CC1)C(=O)c1cc2cc(OC(F)F)ccc2[nH]1 [compound 310] | 4 to 7 | –
CCN(CC1CCCN(Cc2ccc(Cl)cc2)C1)C(=O)c1cc2ccc(C)cc2[nH]1 (stereo not shown) [Compound 155] | 1.5 to 4 | –
CCN(CC1CCCN(CCc2cccc(Cl)c2)C1)C(=O)c1cc2ccccc2[nH]1 (stereo not shown) [Compound 141] | < 1.5 | –
CCN(CC1CCCN(Cc2ccccc2)C1)C(=O)c1cc2ccccc2[nH]1 (stereo not shown) [Compound 132] | 1.5 to 4 | –

Structure (SMILES) | IC50 [1] [µM] | IC50 [2] [µM]
CCN(CC1CCCN(Cc2ccc(OC)cc2)C1)C(=O)c1cc2cc(F)c(F)cc2[nH]1 (stereo not shown) [Compound 171] | < 1.5 | –
CCN(CC1CCCNC1)C(=O)c1cc2ccc(C)cc2[nH]1 (stereo not shown) [compound 417] | > 10 | –
CC(C)N(CC1CCN(Cc2ccc(F)cc2)CC1)C(=O)c1cc2ccccc2[nH]1 [compound 284] | > 10 | –
CCN(CC1CCCN(C(=O)Cc2ccc(OC)cc2)C1)C(=O)c1cc2ccccc2[nH]1 (stereo not shown) [Compound 201] | < 1.5 | –
CCN(CC1CCN(CC(F)(F)c2ccccc2)CC1)C(=O)c1cc2ccccc2[nH]1 [Compound 411] | < 1.5 | –
CCN(CC1CCCN(CCc2cccc(OC)c2)C1)C(=O)c1ccccn1 (stereo not shown) [Compound 236] | > 10 | –
CCN(CC1CCN(Cc2ccc(OC)cc2)CC1)C(=O)c1cc2cc(OC)ccc2[nH]1 [compound 404] | < 1.5 | –
CCN(CC1CCCN(CCc2cccc(OC)c2)C1)C(=O)c1ccc[nH]1 (stereo not shown) [Compound 231] | 1.5 to 4 | –
CCN(CC1CCCCN1CCc1cccc(OC)c1)C(=O)c1cc2ccccc2[nH]1 (stereo not shown) [Compound 224] | 1.5 to 4 | –
CCN(CC1CCN(C(C)(C)Cc2ccccc2)CC1)C(=O)c1cc2ccccc2[nH]1 [Compound 333] | > 10 | –
CCN(CC1CCCNC1)C(=O)c1cc2cccc(F)c2[nH]1 (stereo not shown) [compound 418] | > 10 | –
CCN(CC1CCCN(Cc2ccccc2Cl)C1)C(=O)c1cc2ccccc2[nH]1 (stereo not shown) [Compound 129] | > 10 | –
O=C(c1cc2ccccc2[nH]1)N(CC1CCN(CCc2ccccc2)CC1)CC(F)(F)F [compound 305] | < 1.5 | –
CCN(CC1CCCNC1)C(=O)c1cc2cc(OC(F)F)ccc2[nH]1 (stereo not shown) [compound 425] | > 10 | –
CCN(CC1CCCN(C(C)(C)Cc2cccc(OC(F)F)c2)C1)C(=O)c1cc2cc(OC(F)F)ccc2[nH]1 (stereo not shown) [compound 315] | < 1.5 | –
COc1ccc(CN2CCC(CN(C(=O)c3cc4ccccc4[nH]3)C(C)C)CC2)cc1 [compound 265] | < 1.5 | –
CCN(CC1CCCN(C(C)(C)c2ccc(OC)cc2)C1)C(=O)c1cc2ccccc2[nH]1 (stereo not shown) [Compound 355] | < 1.5 | –
CCN(CC1CCN(C2CCc3ccc(OC)cc3C2)CC1)C(=O)c1cc2ccccc2[nH]1 (stereo not shown) [Compound 329] | < 1.5 | –
CCN(CC1CCCN(CCc2ccccc2Cl)C1)C(=O)c1cc2ccccc2[nH]1 (stereo not shown) [Compound 139] | 1.5 to 4 | –
CCN(CC1CCCN(CCc2ccccc2F)C1)C(=O)c1cc2ccccc2[nH]1 (stereo not shown) [Compound 123] | 1.5 to 4 | –

Structure (SMILES) | IC50 [1] [µM] | IC50 [2] [µM]
CCN(CC1CCCN(C(C)(C)c2ccc(OC)cc2)C1)C(=O)c1cc2cc(Cl)ccc2[nH]1 (stereo not shown) [Compound 357] | < 1.5 | –
COc1cccc(CN2CCC(CN(C(=O)c3cc4ccccc4[nH]3)C(C)C)CC2)c1 [compound 279] | > 10 | –
CCN(CC1CCCN(Cc2cccc(OC(F)F)c2)C1)C(=O)c1cc2cc(OC(F)F)ccc2[nH]1 (stereo not shown) [Compound 177] | < 1.5 | –
CCN(CC1CCN(C(C)(C)c2ccccc2)CC1)C(=O)c1cc2cc(OC)ccc2[nH]1 [Compound 359] | < 1.5 | –
CCN(CC1CCCN(S(=O)(=O)c2ccc(OC)cc2)C1)C(=O)c1cc2ccccc2[nH]1 (stereo not shown) [Compound 200] | 1.5 to 4 | –
CCN(CC1CCCN(CCc2cccc(OC)c2)C1)C(=O)C1Cc2ccccc2N1C (stereo not shown) [Compound 239] | > 10 | –
CCN(CC1CCCN(CCc2cccc(OC)c2)C1)C(=O)c1coc2ccccc12 (stereo not shown) [Compound 233] | < 1.5 | –
CCN(CC1CCCN(CCc2cccc(OC)c2)C1)C(=O)c1cn(C)c2ccccc12 (stereo not shown) [Compound 248] | < 1.5 | –
CC(C)N(CC1CCN(Cc2cccc(F)c2)CC1)C(=O)c1cc2ccccc2[nH]1 [compound 277] | > 10 | –
CCN(CC1CCCN(Cc2ccc(Cl)cc2)C1)C(=O)c1cc2ccc(Cl)cc2[nH]1 (stereo not shown) [Compound 167] | – | < 1.5
CCN(CC1CCCN(CCc2ccccc2C#N)C1)C(=O)c1cc2ccccc2[nH]1 (stereo not shown) [Compound 147] | > 10 | –
CCN(CC1CCCN(Cc2ccc(Cl)cc2)C1)C(=O)c1cc2cc(Cl)ccc2[nH]1 (stereo not shown) [Compound 160] | < 1.5 | –
CCN(CC1CCCN(CCc2ccc3c(c2)OCO3)C1)C(=O)c1cc2ccccc2[nH]1 (stereo not shown) [Compound 146] | 1.5 to 4 | –
CCN(CC1CCN(Cc2cccc(OC)c2)CC1)C(=O)c1cc2ccccc2[nH]1 [compound 267] | 1.5 to 4 | –
O=C(NCC1CCN(Cc2cccc(Cl)c2)CC1)c1cc2ccccc2[nH]1 [compound 271] | < 1.5 | –
CCN(CC1CCN(C(C)(C)Cc2ccccc2F)CC1)C(=O)c1cc2ccccc2[nH]1 [Compound 343] | 1.5 to 4 | –
CCN(CC1CCN(CCc2cccc(OC)c2)CC1)C(=O)c1cc2ccccc2[nH]1 [compound 253] | 1.5 to 4 | –
CCN(CC1CCCN(C(C)(C)Cc2cccc(OC(F)(F)F)c2)C1)C(=O)c1cc2cc(OC(F)(F)F)ccc2[nH]1 (stereo not shown) [compound 316] | – | 4 to 7
